Values after ≈ are worked out from the molar mass of the structure shown. Like-named read-outs stand apart in the source and are kept apart here.
What was measured:
[1] = design: method as in PMID 17999464; conditions: due to fast metabolism; cited from earlier work
[2] = target: T1, yeast plasma membrane H+-ATPase Pma1p (Saccharomyces cerevisiae, UniProt P05030); test: ATP hydrolysis (Baginski) assay on Pma1p in yeast plasma membranes; assay type: biochemical, S. cerevisiae; conditions: for effect on Pma1p ATPase activity: 50 μM compound; for slope factor H of inhibition curve, Pma1p: variable slope fit
T1 construct: made in house; host or cells: S. cerevisiae strain RS-72 (chromosomal PMA1 under GAL1 promoter, repressed on glucose), plasma membranes isolated
T1 sequence (P05030 whole entry): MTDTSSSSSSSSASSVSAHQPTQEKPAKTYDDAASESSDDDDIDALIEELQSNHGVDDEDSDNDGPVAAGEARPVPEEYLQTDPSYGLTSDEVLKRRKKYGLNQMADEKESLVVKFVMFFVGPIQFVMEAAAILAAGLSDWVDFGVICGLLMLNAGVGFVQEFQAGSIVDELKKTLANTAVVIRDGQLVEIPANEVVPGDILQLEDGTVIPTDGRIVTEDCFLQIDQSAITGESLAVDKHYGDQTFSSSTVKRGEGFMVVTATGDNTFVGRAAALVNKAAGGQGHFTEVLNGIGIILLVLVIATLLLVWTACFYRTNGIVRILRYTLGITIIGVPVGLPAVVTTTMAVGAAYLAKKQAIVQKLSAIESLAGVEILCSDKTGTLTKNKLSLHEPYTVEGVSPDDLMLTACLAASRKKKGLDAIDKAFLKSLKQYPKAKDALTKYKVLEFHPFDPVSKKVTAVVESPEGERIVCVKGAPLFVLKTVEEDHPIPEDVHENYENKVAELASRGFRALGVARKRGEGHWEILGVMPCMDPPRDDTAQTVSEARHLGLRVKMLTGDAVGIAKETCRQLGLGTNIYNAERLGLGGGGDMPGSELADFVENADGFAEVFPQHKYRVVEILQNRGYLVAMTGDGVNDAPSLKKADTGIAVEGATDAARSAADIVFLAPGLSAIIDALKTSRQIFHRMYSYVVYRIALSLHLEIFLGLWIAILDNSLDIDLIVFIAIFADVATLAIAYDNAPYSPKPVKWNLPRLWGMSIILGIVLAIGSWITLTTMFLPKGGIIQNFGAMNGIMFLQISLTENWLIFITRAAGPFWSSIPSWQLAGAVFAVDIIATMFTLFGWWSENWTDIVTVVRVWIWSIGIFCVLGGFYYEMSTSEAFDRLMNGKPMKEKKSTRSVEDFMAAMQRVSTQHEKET
Excerpt: (§1) The S. cerevisiae strain RS-72 (MATa ade1-100 his4-519 leu2-3, 112) was transformed according to the lithium acetate/single-stranded carrier DNA/polyethylene glycol method, and cultured essentially as described previously. In RS-72, the promoter of the endogenous yeast PM H^+-ATPase PMA1 gene was replaced by the galactose-dependent GAL1 promoter. This strain grew in media containing galactose, whereas growth in glucose-based medium requires the complementation of the yeast PM H^+-ATPase with a functional PM H^+-ATPase expressed from a plasmid. A 2-micron yeast expression vector was used for expression of different versions of the Arabidopsis thaliana PM H^+-ATPase AHA2 (pMP 1625); a 92-amino acid C-terminal truncated mutation, aha2∆92 (pMP 132); or the wild-type S. cerevisiae PM H^+-ATPase PMA1 (pMP 400) placed under the control of the PMA1 promoter. The use of RS-72 allows for purification of microsomes with a very low endogenous ATPase activity compared to RS-72 transformed with an H^+-ATPase carrying plasmid.
(§2) Yeast expressing AHA2 and Pma1p PM H^+-ATPase, respectively, were grown and harvested essentially as described. The cells were grown with glucose as carbon source in order to ensure than no endogenous plasma membrane H^+-ATPase is expressed. Microsomes and plasma membranes were isolated with all manipulations performed at 4°C. The final pellets containing the isolated membranes were collected and homogenized in GTED20 buffer (20% [v/v] glycerol, 10 mM Tris-HCl pH 7.5, 1 mM EDTA pH 8.0, 1 mM DTT) and stored at—80°C.
(§3) ATPase activity was determined by the Baginski assay as described previously using 2–5 μg of PM protein. The assays were performed at 30°C in 300 μL volumes with 3 mM ATP, pH 6.5, for determination of AHA2 activity, or with 5 mM ATP, pH 5.9 for Pma1p activity. The assay medium 20 mM MOPS, 50 mM KNO3 (to inhibit vacuolar ATPase), 5 mM NaN3 (to inhibit mitochondrial ATPase), 3.5 mM Na2MoO4 (to inhibit acid phosphatase), 1 mM Mg^2+ free in solution, and the indicated concentrations of MgATP. IC50 values for compound inhibition were determined by pre incubating PM with different concentrations of compound for 30 min at room temperature. For kinetics studies, the concentration of ATP was varied between 0.125 and 8 mM using an ATP regenerating system (5 mM phosphoenolpyruvate and 50 μg/mL pyruvate kinase).
(§4) The kinetic of inhibition for DMCM was determined by monitoring the rate of ATP hydrolysis reaction in the presence of increasing ATP substrate concentration. All kinetic data were gathered from experiments performed in the cuvette-based assay, as described above. The data were used in Hanes-Woolf analysis followed by fitting to the appropriate Michaelis-Menten inhibition equation (competitive, noncompetitive, uncompetitive, or mix type inhibition). The kinetic parameters Vmax, Km, Ki were estimated by nonlinear regression using GraphPad Prism 5.0 (GraphPad Software Inc.). For evaluation of inhibitor potency, IC50 values were calculated by using the equation: A=100/1+10^(LogIC50−LogC)×H where A is the observed % ATPase activity in the presence of compound; C, the compound concentration; IC50, the concentration that caused 50% inhibition of the maximal compound effect; and H, the slope factor.

[3] = test system: S. cerevisiae strain RS-72; test: Drop test, yeast growth, all tested RS-72 strains; assay type: cell-based; conditions: Saccharomyces cerevisiae, RS72, 72 h, read-out: Minimum inhibitory concentration (MIC), yeast growth
Excerpt: as §1
(§5) Transformed yeast cells, cultured on synthetic galactose (SG) agar medium supplemented with adenine 40 μg/mL and L-histidine 20 μg/mL (SGAH plates) for 3 days at 30°C, were suspended in H2O to 1x solution (OD660 = 1). Serial dilutions of 0.1, 0.01, 0.001 x of the cells were then prepared and spotted adjacently onto synthetic minimal media plates containing either 2% galactose or 2% glucose at pH 5.5 (SGAH or SDAH), incorporated with different concentrations of tested compound. Growth results were recorded after incubation for 3 days at 30°C. Minimum inhibitory concentrations (MIC values) were determined as the lowest concentrations of compounds where no visible growth of cells was observed.

[4] = target: T2, A. thaliana PM H+-ATPase isoform AHA2 (Arabidopsis thaliana, UniProt P19456); test: ATP hydrolysis (Baginski) assay on AHA2 in yeast plasma membranes; assay type: biochemical; conditions: for effect on AHA2 ATPase activity: 50 μM compound; for slope factor H of inhibition curve, AHA2: variable slope fit
T2 construct: made in house; host or cells: S. cerevisiae strain RS-72, plasma membranes isolated
T2 sequence (P19456 1-948): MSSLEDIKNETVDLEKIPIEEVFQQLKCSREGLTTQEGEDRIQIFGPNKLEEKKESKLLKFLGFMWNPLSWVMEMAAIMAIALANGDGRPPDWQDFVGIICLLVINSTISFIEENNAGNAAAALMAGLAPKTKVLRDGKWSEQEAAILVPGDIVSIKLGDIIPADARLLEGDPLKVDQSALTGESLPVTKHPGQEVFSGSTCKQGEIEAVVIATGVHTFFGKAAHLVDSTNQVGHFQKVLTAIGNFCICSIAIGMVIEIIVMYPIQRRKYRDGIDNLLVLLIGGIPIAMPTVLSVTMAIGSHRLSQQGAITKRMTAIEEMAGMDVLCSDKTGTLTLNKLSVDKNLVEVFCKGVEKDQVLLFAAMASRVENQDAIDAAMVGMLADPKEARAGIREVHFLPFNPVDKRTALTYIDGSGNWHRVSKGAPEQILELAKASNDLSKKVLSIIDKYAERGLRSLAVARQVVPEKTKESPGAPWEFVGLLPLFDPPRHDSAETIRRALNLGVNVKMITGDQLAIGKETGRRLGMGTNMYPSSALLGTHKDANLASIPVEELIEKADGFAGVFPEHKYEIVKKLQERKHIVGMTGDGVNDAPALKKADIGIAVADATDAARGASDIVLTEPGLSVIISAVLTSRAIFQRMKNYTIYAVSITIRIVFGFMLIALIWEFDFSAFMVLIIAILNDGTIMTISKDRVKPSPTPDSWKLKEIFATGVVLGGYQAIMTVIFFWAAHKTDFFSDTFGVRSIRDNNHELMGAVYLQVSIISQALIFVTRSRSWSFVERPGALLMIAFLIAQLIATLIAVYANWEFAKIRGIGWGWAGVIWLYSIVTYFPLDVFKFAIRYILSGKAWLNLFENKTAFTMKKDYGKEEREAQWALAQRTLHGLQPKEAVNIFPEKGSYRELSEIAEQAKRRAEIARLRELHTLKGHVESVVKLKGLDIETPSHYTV
Excerpt: as §1, §2, §3, §4

[5] = test system: S. cerevisiae RS-72 expressing Pma1p; test: Drop test, yeast RS-72 expressing Pma1p; assay type: cell-based; conditions: Saccharomyces cerevisiae, 72 h; no visible growth after 3 days at 30°C
Excerpt: as §1, §5

[6] = test system: S. cerevisiae RS-72 expressing AHA2; test: Drop test, yeast RS-72 expressing AHA2; assay type: cell-based; conditions: Saccharomyces cerevisiae, 72 h; no visible growth after 3 days at 30°C
Excerpt: as §1, §5

[7] = target: SERCA1a (Ca2+-ATPase) (Oryctolagus cuniculus, UniProt P04191); test: SERCA ATP hydrolysis, NADH-coupled spectrophotometric assay; assay type: biochemical, rabbit; conditions: purified leaky SERCA preparation
Sequence of SERCA1a (Ca2+-ATPase) (P04191 1-994 isoform P04191-2): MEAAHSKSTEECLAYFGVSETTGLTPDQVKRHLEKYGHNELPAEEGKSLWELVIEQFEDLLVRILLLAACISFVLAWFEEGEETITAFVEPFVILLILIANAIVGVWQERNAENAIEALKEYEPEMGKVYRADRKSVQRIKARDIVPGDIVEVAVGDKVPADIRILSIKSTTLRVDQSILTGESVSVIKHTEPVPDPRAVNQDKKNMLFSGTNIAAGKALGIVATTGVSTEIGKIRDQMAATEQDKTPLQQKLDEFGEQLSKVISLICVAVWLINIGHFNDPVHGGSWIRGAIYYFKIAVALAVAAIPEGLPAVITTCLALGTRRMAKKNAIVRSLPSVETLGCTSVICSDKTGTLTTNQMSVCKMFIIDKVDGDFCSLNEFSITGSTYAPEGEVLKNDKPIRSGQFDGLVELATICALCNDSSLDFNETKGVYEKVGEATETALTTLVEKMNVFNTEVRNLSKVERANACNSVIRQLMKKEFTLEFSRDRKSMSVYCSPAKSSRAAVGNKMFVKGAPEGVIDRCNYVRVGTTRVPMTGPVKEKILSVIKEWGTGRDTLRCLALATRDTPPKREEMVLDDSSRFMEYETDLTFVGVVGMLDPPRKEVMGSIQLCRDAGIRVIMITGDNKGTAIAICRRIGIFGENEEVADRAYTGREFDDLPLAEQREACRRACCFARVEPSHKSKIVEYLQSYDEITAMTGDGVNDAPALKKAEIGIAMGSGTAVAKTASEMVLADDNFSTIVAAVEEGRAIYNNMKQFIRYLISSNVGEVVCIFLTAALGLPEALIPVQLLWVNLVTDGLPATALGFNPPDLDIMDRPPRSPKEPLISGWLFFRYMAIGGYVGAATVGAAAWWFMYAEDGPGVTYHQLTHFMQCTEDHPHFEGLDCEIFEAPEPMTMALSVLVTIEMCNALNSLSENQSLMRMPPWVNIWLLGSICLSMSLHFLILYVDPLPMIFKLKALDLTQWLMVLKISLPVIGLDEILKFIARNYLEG
Excerpt: Sarcoplasmic reticulum vesicles, prepared from the leg and back muscles of rabbits, were used to obtain purified SERCA1a by extraction with a low concentration of deoxycholate according to established methods. The resulting membrane fragments were used for enzymatic assays to test the effect of the curcuminoid compounds on ATP hydrolysis spectrophotometrically by NADH oxidation with an ATP regenerating system.

[8] = design: method as in doi:10.1016/S0260-8774(02)00264-9; conditions: cited from earlier work
[9] = test system: PM H+-ATPase in spinach plasma membrane vesicles; test: Proton pumping assay (ACMA fluorescence quenching) in spinach plasma membrane vesicles; assay type: biochemical, Spinacia oleracea; conditions: 5–20 μM
Procedure: Baby spinach (Spinacia oleracea) leaves (50 g) were cut into small pieces and homogenized. Subsequently plasma membranes were isolated by two-phase partitioning according to [58]. Plasma membranes were collected and homogenized in the phase buffer containing 330 mM sucrose, 5 mM potassium phosphate pH 7.8, 2 mM KCl, 0.1 mM EDTA, and 1 mM DTT and stored at—80°C.
Inside-out vesicles were created from spinach plasma membranes by adding the detergent Brij-58 to the buffer. Proton transport into the vesicles was determined as described by monitoring fluorescence quenching (excitation at 412 nm, emission at 480 nm) of 9-amino-6-chloro-2-methoxyacridine (ACMA). The reaction medium contained 20 mM MOPS-KOH, pH 7.0, 40 mM K2SO4, 25 mM KNO3, 2 mM ATP, 1 μM ACMA, 60 nM valinomycin and 0.05% (w/v) Brij-58. Proton pumping reactions were started by the addition of MgSO4 to a final concentration of 2 mM, and the proton gradient was collapsed by the addition of 10 μM nigericin.

[10] = 3 mM ATP, pH 6.5, 30°C, 30 min preincubation, read-out: IC50, ATP hydrolysis, AHA2

SMILES | IC50 [2] | effect on Pma1p ATPase activity [2] | slope factor H of inhibition curve, Pma1p [2] | MIC [3] | effect on AHA2 ATPase activity [4] | IC50 [4, 10] | slope factor H of inhibition curve, AHA2 [4] | MIC [5] | MIC [6] | IC50 [7] | other results
COc1cc(/C=C/C(=O)/C=C(O)/C=C/c2ccc(O)c(OC)c2)ccc1O [CM (1), Curcumin] | 76.1 ± 1 µM | significantly inhibited | ~1 | ~50 µM (≈ 18.4 µg/mL) | significantly inhibited | 60.4 ± 1.1 µM | ~1 | 60 to 70 µM (≈ 22.1 to 25.8 µg/mL) | 40 to 50 µM (≈ 14.7 to 18.4 µg/mL) | 3.9 ± 0.4 µM | bioavailability [1]: poor bioavailability
O=C(/C=C(O)/C=C/c1ccc(O)cc1)/C=C/c1ccc(O)cc1 [BDCM (3), bisdemethoxycurcumin] | – | significantly inhibited | ~1 | – | significantly inhibited | – | ~1 | 210 to 220 µM (≈ 64.7 to 67.8 µg/mL) | 200 to 210 µM (≈ 61.7 to 64.7 µg/mL) | – | IC50 ([2]; 5 mM ATP, pH 5.9, 30°C, 30 min preincubation, read-out: IC50, ATP hydrolysis, Pma1p): 90.6 ± 1.1 µM; MIC ([3]; approximate values, 3 days at 30°C): ~200 µM (≈ 61.7 µg/mL); IC50 [4]: 76.7 ± 1.1 µM
COc1cc(/C=C/C(=O)/C=C(O)/C=C/c2ccc(O)cc2)ccc1O [DMCM (2), demethoxycurcumin] | 28.9 ± 1 µM | significantly inhibited | 1.5 | ~30 µM (≈ 10.2 µg/mL) | significantly inhibited | 18.7 ± 1 µM | 2.4 | 40 to 50 µM (≈ 13.5 to 16.9 µg/mL) | 20 to 30 µM (≈ 6.77 to 10.2 µg/mL) | 2.6 ± 0.9 µM | Ki [2]: 27.7 ± 1.2 µM; Pma1p Vmax ([2]; 10 μM demethoxycurcumin): 1.00 ± 0.13 µM/mg/min; Pma1p Vmax ([2]; 20 μM demethoxycurcumin): 0.63 ± 0.05 µM/mg/min; Pma1p Vmax ([2]; 30 μM demethoxycurcumin): 0.48 ± 0.04 µM/mg/min; Pma1p Vmax ([2]; 40 μM demethoxycurcumin): 0.39 ± 0.04 µM/mg/min; mode of inhibition versus ATP, Pma1p ([2]; DMCM 0-40 μM, ATP 0.125–8 mM): noncompetitive inhibitor; AHA2 Vmax ([4]; 10 μM demethoxycurcumin): 0.46 ± 0.02 µM/mg/min; AHA2 Vmax ([4]; 20 μM demethoxycurcumin): 0.35 ± 0.01 µM/mg/min; AHA2 Vmax ([4]; 30 μM demethoxycurcumin): 0.19 ± 0.01 µM/mg/min; AHA2 Vmax ([4]; 40 μM demethoxycurcumin): 0.11 ± 0.01 µM/mg/min; fold lower IC50 value in comparison to CM or BDCM ([4]; AHA2 and Pma1p ATP hydrolysis): 2- to 4 fold; mode of inhibition versus ATP, AHA2 ([4]; DMCM 0-40 μM, ATP 0.125–8 mM): noncompetitive inhibitor; Ki ([4]; in vitro, noncompetitive model, ATP 0.125-8 mM): 14.7 ± 0.7 µM; chemical stability compared with CM [8]: more stable; effect on H+ pumping activity [9]: dramatically reversed

— paper PMC5028038, “Demethoxycurcumin Is A Potent Inhibitor of P-Type ATPases from Diverse Kingdoms of Life” (PLoS ONE, 2016)
